In patent US20100311729A1, “Substituted imidazopyridazines and pyrrolopyrimidines as lipid kinase inhibitors” (priority 2007, published 2010) one finds IC50 data, which are given here for nine molecules.

What all share (assay type): biochemical
The target of assay [1] is T1, PI3K gamma (Homo sapiens, UniProt P48736).
T1 construct: PI3Kγ BV-950 p110g(D144aa)-C-Term His Tag; His tag (C); made in house; host or cells: construct from the Roger Williams lab (MRC LMB) in pVL1393; baculovirus; Tn5 (Trichoplusia ni) or TiniPro insect cells
The assay is described as follows: PI3 kinase assay (Kinase-Glo luminescence), PI3K gamma. Conditions: Enzymatic Data; read-out: PI3K gamma IC50 [umol]. The method, boiled down:
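Percent inhibition at eight concentrations (typically 10 to 0.003 […]) fitted to a four-parameter logistic model to give IC50. Reaction initiated with ATP; final ATP 1 μM and phosphatidylinositol 10 μg/mL; ATP consumption read by Kinase-Glo luminescence.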
(In Kinase-Glo more light means more ATP remaining.)

The target of assay [2] is T2, PI3K alfa (Homo sapiens, UniProt P42336).
T2 construct: for the p110-a subunit (with a deletion of the first 20 amino acids); His tag (C); made in house; host or cells: baculovirus; Tn5 (Trichoplusia ni) or TiniPro insect cells
Nature of the assay: PI3 kinase assay (Kinase-Glo luminescence), PI3K alfa. Conditions: Enzymatic Data; read-out: PI3K alfa IC50 [umol]. The method, boiled down:
(§1)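 Recombinant PI3K constructs (alfa 10 nM, delta 10 nM, gamma 150 nM) with 1 μM ATP and 10 μg/mL phosphatidylinositol in Tris pH 7.5, MgCl2, NaCl, CHAPS, DTT; 60 min (alfa, delta) or 120 min (gamma) at room temperature. ATP depletion read by Kinase-Glo luminescence; IC50 from 4-parameter logistic fit over 8 concentrations.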

Assay [3] concerns the target T3, PI3K beta (Homo sapiens, UniProt P42338).
T3 construct: for the full-length p110-b subunit are generated and fused by overlapping PCR; His tag (C); made in house; host or cells: baculovirus; Tn5 (Trichoplusia ni) or TiniPro insect cells
The assay is described as follows: PI3 kinase assay (Kinase-Glo luminescence), PI3K beta. Conditions: Enzymatic Data; read-out: PI3K beta IC50 [umol]. An outline of the steps: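 PI3Kβ (25 nM, BV-949) with 10 μg/mL phosphatidylinositol in Tris pH 7.5/MgCl2/NaCl/CHAPS/DTT buffer; reaction started with 1 μM ATP, 60 min at room temperature. ATP depletion read by Kinase-Glo luminescence; 8-point dilutions, IC50 by four-parameter logistic fit.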

Assay [4] deals with T4, PI3K delta (Homo sapiens, UniProt O00329).
T4 construct: for the full-length p110-d subunit are generated and fused by overlapping PCR; His tag (C); made in house; host or cells: baculovirus; Tn5 (Trichoplusia ni) or TiniPro insect cells
The assay is described as follows: PI3 kinase assay (Kinase-Glo luminescence), PI3K delta. Conditions: Enzymatic Data; read-out: PI3K delta IC50 [umol]. An outline of the steps:
as §1

pIC50: −log10 of the molar value.

T4 sequence (O00329 with tags, fused parts or gaps limits assumed): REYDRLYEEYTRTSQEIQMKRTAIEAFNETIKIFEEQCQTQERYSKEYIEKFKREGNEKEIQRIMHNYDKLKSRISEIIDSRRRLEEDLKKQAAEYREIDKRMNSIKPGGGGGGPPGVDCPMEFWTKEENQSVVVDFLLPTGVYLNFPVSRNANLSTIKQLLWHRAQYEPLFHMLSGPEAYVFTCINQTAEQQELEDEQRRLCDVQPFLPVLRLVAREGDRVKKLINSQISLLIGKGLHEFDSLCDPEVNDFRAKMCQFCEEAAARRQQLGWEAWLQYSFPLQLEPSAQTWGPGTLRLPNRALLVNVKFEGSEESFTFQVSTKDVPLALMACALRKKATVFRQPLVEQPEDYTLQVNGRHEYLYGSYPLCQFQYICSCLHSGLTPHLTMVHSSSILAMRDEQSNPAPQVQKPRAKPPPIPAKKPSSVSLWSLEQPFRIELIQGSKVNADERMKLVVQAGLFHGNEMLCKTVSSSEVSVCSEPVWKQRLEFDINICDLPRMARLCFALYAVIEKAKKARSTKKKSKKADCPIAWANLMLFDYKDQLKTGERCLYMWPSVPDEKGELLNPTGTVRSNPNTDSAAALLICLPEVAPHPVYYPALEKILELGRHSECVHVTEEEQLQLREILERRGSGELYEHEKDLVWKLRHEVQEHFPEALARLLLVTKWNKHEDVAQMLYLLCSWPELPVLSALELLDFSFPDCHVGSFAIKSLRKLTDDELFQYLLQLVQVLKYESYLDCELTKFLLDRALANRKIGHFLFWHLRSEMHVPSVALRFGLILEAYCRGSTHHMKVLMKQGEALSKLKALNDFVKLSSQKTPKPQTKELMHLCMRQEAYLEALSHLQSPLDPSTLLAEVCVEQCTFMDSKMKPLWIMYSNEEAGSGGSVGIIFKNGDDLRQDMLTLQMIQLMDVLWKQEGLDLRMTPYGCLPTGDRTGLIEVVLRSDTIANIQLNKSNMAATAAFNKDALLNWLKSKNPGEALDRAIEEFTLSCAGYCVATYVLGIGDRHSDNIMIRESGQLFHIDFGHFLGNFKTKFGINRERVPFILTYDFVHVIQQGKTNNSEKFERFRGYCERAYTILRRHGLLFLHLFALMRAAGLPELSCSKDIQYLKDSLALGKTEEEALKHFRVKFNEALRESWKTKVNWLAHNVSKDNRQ
T1 sequence (P48736 144-1102 limits assumed): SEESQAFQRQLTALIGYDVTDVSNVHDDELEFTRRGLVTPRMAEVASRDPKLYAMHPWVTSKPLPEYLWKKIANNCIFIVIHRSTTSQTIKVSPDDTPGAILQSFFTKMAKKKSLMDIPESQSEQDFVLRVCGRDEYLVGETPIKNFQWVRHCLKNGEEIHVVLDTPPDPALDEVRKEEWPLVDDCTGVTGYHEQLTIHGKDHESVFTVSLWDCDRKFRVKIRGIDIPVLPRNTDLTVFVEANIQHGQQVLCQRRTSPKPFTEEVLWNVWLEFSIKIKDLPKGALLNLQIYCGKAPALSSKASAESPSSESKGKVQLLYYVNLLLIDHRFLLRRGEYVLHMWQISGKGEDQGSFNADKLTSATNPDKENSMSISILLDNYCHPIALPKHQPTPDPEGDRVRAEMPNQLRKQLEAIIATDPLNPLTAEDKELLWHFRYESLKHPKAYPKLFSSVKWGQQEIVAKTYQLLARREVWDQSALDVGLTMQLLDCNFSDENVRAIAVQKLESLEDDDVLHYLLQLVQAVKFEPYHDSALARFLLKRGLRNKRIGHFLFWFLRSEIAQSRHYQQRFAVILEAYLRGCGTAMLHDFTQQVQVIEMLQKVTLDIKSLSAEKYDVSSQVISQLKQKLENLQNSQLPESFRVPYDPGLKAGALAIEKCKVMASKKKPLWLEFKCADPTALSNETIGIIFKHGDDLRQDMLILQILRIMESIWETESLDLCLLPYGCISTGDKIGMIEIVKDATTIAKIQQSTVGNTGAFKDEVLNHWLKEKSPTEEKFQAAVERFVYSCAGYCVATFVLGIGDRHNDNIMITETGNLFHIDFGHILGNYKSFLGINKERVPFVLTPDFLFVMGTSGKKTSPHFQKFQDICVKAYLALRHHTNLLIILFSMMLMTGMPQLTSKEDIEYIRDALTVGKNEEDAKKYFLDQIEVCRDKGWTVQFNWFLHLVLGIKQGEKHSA
T2 sequence (P42336 with tags, fused parts or gaps limits assumed): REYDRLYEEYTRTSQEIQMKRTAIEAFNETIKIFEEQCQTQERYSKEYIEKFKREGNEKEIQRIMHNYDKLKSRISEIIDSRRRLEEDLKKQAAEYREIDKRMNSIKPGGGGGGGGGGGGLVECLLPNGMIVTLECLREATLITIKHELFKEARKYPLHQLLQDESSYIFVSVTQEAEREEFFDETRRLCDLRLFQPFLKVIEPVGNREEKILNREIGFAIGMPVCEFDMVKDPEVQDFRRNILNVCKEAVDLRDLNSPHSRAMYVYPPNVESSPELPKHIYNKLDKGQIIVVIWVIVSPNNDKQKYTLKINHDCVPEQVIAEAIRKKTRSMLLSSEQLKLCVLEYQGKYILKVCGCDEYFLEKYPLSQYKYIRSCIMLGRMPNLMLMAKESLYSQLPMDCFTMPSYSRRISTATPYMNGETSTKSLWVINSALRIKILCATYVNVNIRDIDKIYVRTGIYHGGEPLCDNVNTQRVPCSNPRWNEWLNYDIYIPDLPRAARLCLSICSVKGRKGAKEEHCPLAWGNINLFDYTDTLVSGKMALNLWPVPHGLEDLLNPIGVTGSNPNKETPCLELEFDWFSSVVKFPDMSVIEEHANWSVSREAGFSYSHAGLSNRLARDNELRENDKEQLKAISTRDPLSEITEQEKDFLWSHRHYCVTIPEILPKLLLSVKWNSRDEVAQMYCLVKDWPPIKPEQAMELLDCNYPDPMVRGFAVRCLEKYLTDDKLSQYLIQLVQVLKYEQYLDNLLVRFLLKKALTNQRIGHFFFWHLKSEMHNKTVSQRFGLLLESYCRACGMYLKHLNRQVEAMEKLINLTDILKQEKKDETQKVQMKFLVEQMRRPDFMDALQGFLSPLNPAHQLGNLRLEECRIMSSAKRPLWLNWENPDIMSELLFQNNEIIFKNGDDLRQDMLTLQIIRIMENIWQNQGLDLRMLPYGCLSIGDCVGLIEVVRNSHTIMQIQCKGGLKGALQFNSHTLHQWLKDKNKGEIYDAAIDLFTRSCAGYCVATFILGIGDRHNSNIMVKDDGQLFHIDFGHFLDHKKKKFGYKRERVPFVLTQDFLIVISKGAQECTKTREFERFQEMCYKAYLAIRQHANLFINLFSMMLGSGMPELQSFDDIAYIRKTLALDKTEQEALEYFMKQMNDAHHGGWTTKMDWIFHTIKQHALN
T3 sequence (P42338 with tags, fused parts or gaps limits assumed): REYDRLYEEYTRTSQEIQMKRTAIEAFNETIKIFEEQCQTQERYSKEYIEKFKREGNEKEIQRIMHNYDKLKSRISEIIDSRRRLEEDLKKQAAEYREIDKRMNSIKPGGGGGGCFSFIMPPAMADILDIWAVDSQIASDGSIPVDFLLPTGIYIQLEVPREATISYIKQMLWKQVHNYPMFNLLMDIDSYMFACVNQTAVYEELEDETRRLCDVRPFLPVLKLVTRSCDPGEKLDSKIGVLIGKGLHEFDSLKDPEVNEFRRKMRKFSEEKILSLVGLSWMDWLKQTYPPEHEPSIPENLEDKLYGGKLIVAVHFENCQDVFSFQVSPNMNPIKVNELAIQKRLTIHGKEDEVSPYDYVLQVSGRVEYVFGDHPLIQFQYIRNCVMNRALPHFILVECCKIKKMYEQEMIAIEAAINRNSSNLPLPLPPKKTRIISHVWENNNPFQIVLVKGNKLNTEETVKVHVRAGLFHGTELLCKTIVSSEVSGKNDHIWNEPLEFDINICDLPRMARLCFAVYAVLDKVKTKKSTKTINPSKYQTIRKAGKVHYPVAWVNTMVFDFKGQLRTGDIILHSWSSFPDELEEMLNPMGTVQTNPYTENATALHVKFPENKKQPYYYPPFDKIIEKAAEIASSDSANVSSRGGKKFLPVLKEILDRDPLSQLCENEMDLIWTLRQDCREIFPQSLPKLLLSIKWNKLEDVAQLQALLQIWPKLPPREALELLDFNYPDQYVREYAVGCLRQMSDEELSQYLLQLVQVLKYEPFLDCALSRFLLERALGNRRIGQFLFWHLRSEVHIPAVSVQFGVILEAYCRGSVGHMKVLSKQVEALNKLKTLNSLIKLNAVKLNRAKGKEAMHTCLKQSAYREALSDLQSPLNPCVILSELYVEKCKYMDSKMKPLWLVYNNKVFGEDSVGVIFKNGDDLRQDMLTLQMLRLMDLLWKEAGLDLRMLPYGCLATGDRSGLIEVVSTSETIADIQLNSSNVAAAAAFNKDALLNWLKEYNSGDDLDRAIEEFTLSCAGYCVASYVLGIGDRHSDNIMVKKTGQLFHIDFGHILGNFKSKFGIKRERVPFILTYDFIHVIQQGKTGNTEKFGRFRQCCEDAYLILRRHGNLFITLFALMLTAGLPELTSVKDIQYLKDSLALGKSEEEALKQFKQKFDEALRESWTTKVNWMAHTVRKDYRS

`Nc1ncc(-c2ccc3ncc(-c4ccc(C(=O)NCCCN5CCOCC5)cc4)n3n2)cc1C(F)(F)F` [Example 81, 4-[6-(6-Amino-5-trifluoromethyl-pyridin-3-yl)-imidazo [1,2-b]pyridazin-3-yl]-N-(3-morpholin-4-yl-propyl)-benzamide]: the pIC50 in assay [1] is 6.20; in assay [2] it was 7.68; in assay [3], 7.09; in assay [4] it was 7.89.

As for `CC(=O)N1CCN(C(=O)c2ccc(-c3cnc4ccc(-c5cnc(N)c(C(F)(F)F)c5)nn34)cc2)CC1` [Example 82, 1-(4-{4-[6-(6-Amino-5-trifIuoro-methyl-pyridin-3-yl)-imidazo [1,2-b]pyridazin-3-yl]-benzoyl}-piperazin-1-yl)-ethanone], the pIC50 is 6.28 in assay [1], 7.74 in assay [2], 6.77 in assay [3] and 8.15 in assay [4].

With `CN(C)C(=O)c1ccc(CNC(=O)c2ccc(-c3cnc4ccc(-c5cnc(N)c(C(F)(F)F)c5)nn34)cc2)cc1` [Example 83, N-(4-N-dimethylacetyl-benzyl)-4-[6-(6-amino-5-trifluoro-methyl-pyridin-3-yl)-imidazo [1,2-b]pyridazin-3-yl]-benzamide], the pIC50 in assay [1] is 6.25; in assay [2], 7.57; in assay [3], 6.78; in assay [4], 7.64.

Regarding `CC(=O)c1ccc(CNC(=O)c2ccc(-c3cnc4ccc(-c5cnc(N)c(C(F)(F)F)c5)nn34)cc2)cc1` [Example 84, N-(4-Acetyl-benzyl)-4-[6-(6-amino-5-trifluoromethyl-pyridin-3-yl)-imidazo [1,2-b]pyridazin-3-yl]-benzamide], the pIC50 was 5.49 in assay [1], 7.06 in assay [2], 5.26 in assay [3] and 6.51 in assay [4].

With `Nc1ncc(-c2ccc3ncc(-c4ccc(C(=O)N5CCN(Cc6ccccn6)CC5)cc4)n3n2)cc1C(F)(F)F` [Example 85, {4-[6-(6-Amino-5-trifluoromethyl-pyridin-3-yl)-imidazo[1,2-b]pyridazin-3-yl]-phenyl}-(4-pyridin-2-ylmethyl-piperazin-1-yl)-methanone], the pIC50 was 6.89 in assay [1], 7.72 in assay [2], 6.47 in assay [3] and 7.82 in assay [4].

In the case of `CC(C)C(=O)NCCOc1ccc(-c2ccc3ncc(-c4cnc(N)c(C(F)(F)F)c4)n3n2)cc1` [Example 86, N-(2-{4-[3-(6-Amino-5-trifluoro-methyl-pyridin-3-yl)-imidazo [1,2-b]pyridazin-6-yl]-phenoxy}-ethyl)-isobutyramide], the pIC50 was 6.95 in assay [1], 7.03 in assay [2], 6.15 in assay [3] and 7.01 in assay [4].

`CNc1ncc(-c2cnc3ccc(-c4cnc(N)c(C(F)(F)F)c4)nn23)cn1` [Example 87, {5-[6-(6-Amino-5-trifluoro-methyl-pyridin-3-yl)-imidazo [1,2-b]pyridazin-3-yl]-pyrimidin-2-yl)-methylamine]: the pIC50 in assay [1] is 5.91; in assay [2] it was 7.54; in assay [3], 8.00; in assay [4], 7.74.

In the case of `Nc1ncc(-c2ccc3ncc(-c4ccc(OCCn5cccn5)cc4)n3n2)cc1C(F)(F)F` [Example 88, 5-{3-[4-(2-Pyrazol-1-yl-ethoxy)-phenyl]-imidazo[1,2-b]pyridazin-6-yl}-3-trifluoro-methyl-pyridin-2-ylamine], the pIC50 in assay [1] was 5.61; in assay [2] it was 6.89; in assay [3], 6.00; in assay [4], 6.83.

For the molecule `Nc1ncc(-c2cnc3ccc(-c4ccc(OCCCN5CCCC5=O)cc4)nn23)cc1C(F)(F)F` [Example 89, 1-(3-{4-[3-(6-Amino-5-trifluoro-methyl-pyridin-3-yl)-imidazo [1,2-b]pyridazin-6-yl]-phenoxy}-propyl)-pyrrolidin-2-one], the pIC50 in assay [1] is 6.27; in assay [2], 7.13; in assay [3], 5.56; in assay [4], 7.06.
